Patent publication US20030212102A1, “Novel solid dispersion compositions” (priority 2002, published 2003)
Values after ≈ are worked out from the molar mass of the structure shown.

Assay: Solubility and dissolution in simulated gastric fluid, USP Apparatus 2, non-sink conditions
Type: physicochemical
Conditions: simulated gastric fluid without enzymes, 37 °C, thermodynamic from solid; simulated gastric fluid without enzyme, pH 1.2; read-out: in vitro solubility
Experimental: Physical matrix mixtures and melted carriers were made and tested to compare the baseline solubility and background absorbance to that of the solid dispersions. The resultant solid dispersion were yellow-orange hard solids with some air pockets formed by the cooling process. The dispersion solubility and dissolution rate were analyzed by USP Apparatus 2 dissolution. The dissolution was performed under the following conditions: SGF dissolution media, 0.1 M HCL without enzymes pH 1.2; non-sink conditions of 350-370 mL media; paddle speed of 50 rpm; temperature of 37° C.; 10 mL sample pull not replaced. Analysis of the (S)-(−)-N-(α-Ethylbenzyl)-3-hydroxy-2-phenylquinoline-4-carboxamide was performed using a UV spectrophotometer at 359 nm compared to standard solutions.

CC[C@H](NC(=O)c1c(O)c(-c2ccccc2)nc2ccccc12)c1ccccc1 [(S)-(−)-N-(α-Ethylbenzyl)-3-hydroxy-2-phenylquinoline-4-carboxamide]
solubility: 31 µg/mL (≈ 81.1 µM)
